Among the data in patent US20240059691A1 (KALVISTA PHARMACEUTICALS LIMITED, priority 2020, published 2024) are IC50 values, retold here.

Common to all, as to assay type: biochemical
One experiment has as its target Thrombin (Homo sapiens (Human), UniProt P00734). As to the kind of experiment: Determination of related protease inhibition: Thrombin (fluorogenic substrate at Km). The settings on record: 25° C. As for the experimental part:
Determination of Related Protease Inhibition
In vitro inhibition of related proteases was determined using an ([…] assay based on standard literature methods (see e.g. Shori et al., Biochem. Pharmacol., 1992, 43, 1209; Bouckaert et al., European Journal of Medicinal Chemistry 110 (2016) 181). Human serine protease enzymes Plasma Kallikrein, KLK1, FXa, Plasmin, Thrombin and Trypsin were assayed for enzymatic activity using an appropriate fluorogenic substrate at Km concentration, FXIa at fixed substrate concentration of 100 μM, and various concentrations of the test compound. Protease activity was measured by monitoring the accumulation of liberated fluorescence from the substrate over […]. The linear rate of fluorescence increase per minute was expressed as percentage (%) activity. IC50 values were calculated as the concentration of inhibitor giving 50% inhibition of the uninhibited enzyme activity (100%).

In the next experiment the target is FXa (Homo sapiens (Human), UniProt P00742). As to the kind of experiment: Determination of related protease inhibition: FXa (fluorogenic substrate at Km). The conditions noted are these: 25° C. A digest of the protocol:
(§1)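 Fluorescence release from a Km-level fluorogenic substrate, read for 5 min at 25 °C, gave the linear rate per minute for each inhibitor concentration. Rates were converted to % of uninhibited human enzyme activity; IC50 = inhibitor concentration producing 50% inhibition.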

Another experiment concerns the target Plasma Kallikrein (Homo sapiens (Human), UniProt P03952). As to the kind of experiment: Determination of related protease inhibition: Plasma Kallikrein (fluorogenic substrate at Km). The conditions noted are these: 25° C., read-out: IC50 (human PKal). A digest of the protocol:
as §1

The target in a further experiment is KLK1 (Homo sapiens (Human), UniProt P06870). As to the kind of experiment: Determination of related protease inhibition: KLK1 (fluorogenic substrate at Km). The conditions noted are these: 25° C. A digest of the protocol: as §1
KLK1, sequence (P06870 25-262): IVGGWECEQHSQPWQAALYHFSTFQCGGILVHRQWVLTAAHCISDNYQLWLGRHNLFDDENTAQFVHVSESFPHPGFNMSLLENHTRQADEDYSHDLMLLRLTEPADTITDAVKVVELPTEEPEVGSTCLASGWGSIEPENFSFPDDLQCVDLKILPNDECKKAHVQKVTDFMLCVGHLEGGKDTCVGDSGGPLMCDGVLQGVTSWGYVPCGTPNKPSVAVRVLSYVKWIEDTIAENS
Another experiment concerns the target Human Factor XIIa (Homo sapiens (Human), UniProt P00748). The experiment can be described thus: Determination of FXIIa inhibition (fluorogenic substrate H-DPro-Phe-Arg-AFC, IC50 assay). The conditions noted are these: substrate H-DPro-Phe-Arg-AFC at Km, 25° C.; class scale A-G. Put shortly:
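IC50 derived from % remaining activity, taken as the linear fluorescence rate over a 5 min read at 25° C. Substrate H-DPro-Phe-Arg-AFC was used at its Km (Michaelis-Menten) with human FXIIa and serial compound dilutions, 25° C.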

Plasma Kallikrein, sequence (P03952 391-638): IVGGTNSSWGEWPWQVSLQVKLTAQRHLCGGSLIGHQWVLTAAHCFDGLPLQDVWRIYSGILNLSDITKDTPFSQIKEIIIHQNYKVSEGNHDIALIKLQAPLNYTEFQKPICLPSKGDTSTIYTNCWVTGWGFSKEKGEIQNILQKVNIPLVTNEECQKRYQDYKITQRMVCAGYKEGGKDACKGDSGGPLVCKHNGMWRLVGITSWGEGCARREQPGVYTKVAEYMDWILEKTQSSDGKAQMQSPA
Plasma Kallikrein, sequence (P03952 20-390 partner): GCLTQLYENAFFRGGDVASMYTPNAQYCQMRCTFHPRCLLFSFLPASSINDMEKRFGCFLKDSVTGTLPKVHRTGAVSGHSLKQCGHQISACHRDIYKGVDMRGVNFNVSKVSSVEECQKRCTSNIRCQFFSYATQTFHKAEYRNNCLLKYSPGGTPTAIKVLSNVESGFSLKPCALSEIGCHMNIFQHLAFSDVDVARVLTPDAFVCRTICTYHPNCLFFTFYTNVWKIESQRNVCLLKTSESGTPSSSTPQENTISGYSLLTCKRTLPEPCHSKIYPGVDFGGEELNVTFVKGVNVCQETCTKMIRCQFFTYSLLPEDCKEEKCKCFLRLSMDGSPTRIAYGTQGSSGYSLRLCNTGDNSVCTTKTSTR
Human Factor XIIa, sequence (P00748 373-615): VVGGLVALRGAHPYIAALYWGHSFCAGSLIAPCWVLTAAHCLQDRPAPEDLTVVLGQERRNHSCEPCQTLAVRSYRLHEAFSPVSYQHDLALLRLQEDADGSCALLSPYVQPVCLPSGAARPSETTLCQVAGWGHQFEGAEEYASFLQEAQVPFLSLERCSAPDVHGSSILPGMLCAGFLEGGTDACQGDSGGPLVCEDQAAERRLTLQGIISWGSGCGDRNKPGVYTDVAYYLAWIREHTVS
FXa, sequence (P00742 235-488): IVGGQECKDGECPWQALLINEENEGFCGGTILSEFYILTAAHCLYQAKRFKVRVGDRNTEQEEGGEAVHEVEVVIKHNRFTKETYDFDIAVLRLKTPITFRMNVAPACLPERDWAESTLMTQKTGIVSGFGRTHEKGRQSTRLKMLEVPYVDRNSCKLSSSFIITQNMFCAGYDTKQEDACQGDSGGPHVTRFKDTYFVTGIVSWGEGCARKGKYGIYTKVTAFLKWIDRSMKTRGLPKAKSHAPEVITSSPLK
FXa, sequence (P00742 41-179 partner): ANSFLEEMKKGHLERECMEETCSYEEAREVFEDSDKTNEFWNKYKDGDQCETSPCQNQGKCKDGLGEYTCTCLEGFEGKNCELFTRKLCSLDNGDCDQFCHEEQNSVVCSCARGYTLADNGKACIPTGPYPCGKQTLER

On to `CN1CCC(CNc2ccc(CNc3cncc4[nH]ccc34)cn2)CC1` [Example 1213, N-((6-(((1-methylpiperidin-4-yl)methyl)amino)pyridin-3-yl)methyl)-1H-pyrrolo[2,3-c]pyridin-4-amine], for which the 50% inhibitory concentration (IC50) is 10 to 40 µM against Thrombin; above 40 µM against FXa; 10 to 40 µM on Plasma Kallikrein; above 100 µM against KLK1; 3000 to 10000 nM against Human Factor XIIa.

With `CN1CCN(CCc2ccc(CNc3ccc4c(N)nccc4c3)c(F)c2)CC1` [Example 2181, 6-N-({2-fluoro-4-[2-(4-methylpiperazin-1-yl)ethyl]phenyl}methyl)isoquinoline-1,6-diamine], the IC50 against Thrombin was in the range of 3 to 10 µM; on FXa it was 10 to 40 µM; on Plasma Kallikrein, 10 to 40 µM; on KLK1, 0.3 to 1 µM; against Human Factor XIIa, 300 to 1000 nM.

Take `CC(=O)N1CC2CC1CC2COc1cc(CNc2ccc3c(N)nccc3c2)ccn1` (stereo not shown) [Example 4275, 1-(5-(((4-(((1-aminoisoquinolin-6-yl)amino)methyl)pyridin-2-yl)oxy)methyl)-2-azabicyclo[2.2.1]heptan-2-yl)ethan-1-one]: the IC50 was 0.3 to 1 µM against Thrombin; 0.3 to 1 µM against FXa; 10 to 40 µM on Plasma Kallikrein; 1 to 3 µM on KLK1; 1000 to 3000 nM at Human Factor XIIa.

As for `CN1CCC(CNc2cc(CNc3ccc4c(N)nccc4c3)ccn2)CC1` [Example 4284, 6-N-[(2-{[(1-methylpiperidin-4-yl)methyl]amino}pyridin-4-yl)methyl]isoquinoline-1,6-diamine], the 50% inhibitory concentration (IC50) was in the range of 10 to 40 µM at Thrombin; 0.3 to 1 µM on FXa; 10 to 40 µM on Plasma Kallikrein; 1 to 3 µM at KLK1; 100 to 300 nM against Human Factor XIIa.

For `CN1CCC(CNc2ccc(CNc3ccnc(N)c3)cn2)CC1` [Example 1096, N4-((6-(((1-methylpiperidin-4-yl)methyl)amino)pyridin-3-yl)methyl)pyridine-2,4-diamine], the IC50 is 10 to 40 µM against Thrombin; 10 to 40 µM against FXa; above 40 µM on Plasma Kallikrein; 10 to 40 µM against KLK1; 3000 to 10000 nM against Human Factor XIIa.

As to `CN1CCC(CNc2cc(CNc3ccc4c(N)ncc(Cl)c4c3)ccn2)CC1` [Example 4285, 4-Chloro-N6-((2-(((1-methylpiperidin-4-yl)methyl)amino)pyridin-4-yl)methyl)isoquinoline-1,6-diamine], the 50% inhibitory concentration (IC50) at Thrombin is above 40 µM; on FXa, 10 to 40 µM; on Plasma Kallikrein, above 40 µM; at KLK1, 3 to 10 µM; at Human Factor XIIa it was 10 to 100 nM.

For `CN1CC(C2CN(c3cc(CNc4ccc5c(N)nccc5c4)ccn3)C2)C1` [Example 5435, N6-((2-(1′-methyl-[3,3′-biazetidin]-1-yl)pyridin-4-yl)methyl)isoquinoline-1,6-diamine], the IC50 against Thrombin fell in the range of 3 to 10 µM; against FXa, 3 to 10 µM; on Plasma Kallikrein, 10 to 40 µM; on KLK1, 1 to 3 µM; at Human Factor XIIa, 1000 to 3000 nM.

Take `Cc1cc(NCc2ccnc(OCC3CCN(C)CC3)c2)cc2ccncc12` [Example 4464, 8-methyl-N-((2-((1-methylpiperidin-4-yl)methoxy)pyridin-4-yl)methyl)isoquinolin-6-amine]: the IC50 at Thrombin is above 4 µM; against FXa it was above 100 µM; at Plasma Kallikrein, above 20 µM; against KLK1, 3 to 10 µM; against Human Factor XIIa, 1000 to 3000 nM.

Turning to `CN1CC(OCc2ccc(CNc3cccc4c(N)nccc34)c(F)c2)CCC1=O` (stereo not shown) [Example 2209, 5-[[4-[[(1-amino-5-isoquinolyl)amino]methyl]-3-fluoro-phenyl]methoxy]-1-methyl-piperidin-2-one], the IC50 at Thrombin is above 40 µM; against FXa, above 40 µM; on Plasma Kallikrein it was above 40 µM; against KLK1, 10 to 40 µM; against Human Factor XIIa it was 1000 to 3000 nM.

As for `Cn1ccnc1CC(=O)NCc1ccc(CNc2cccc3c(N)nccc23)c(F)c1` [Example 2211, N-(4-(((1-aminoisoquinolin-5-yl)amino)methyl)-3-fluorobenzyl)-2-(1-methyl-1H-imidazol-2-yl)acetamide], the IC50 against Thrombin is above 40 µM; on FXa, above 40 µM; on Plasma Kallikrein, above 40 µM; at KLK1, 10 to 40 µM; on Human Factor XIIa it was 10000 to 40000 nM.

Regarding `Nc1nccc2c(NCc3ccnc(OCC4CCn5c(nnc5C(F)F)C4)c3)cccc12` (stereo not shown) [Example 4467, N5-((2-((3-(difluoromethyl)-5,6,7,8-tetrahydro-[1,2,4]triazolo[4,3-a]pyridin-7-yl)methoxy)pyridin-4-yl)methyl)isoquinoline-1,5-diamine], the IC50 on Thrombin was 10 to 40 µM; at FXa it was 10 to 40 µM; on Plasma Kallikrein, above 40 µM; against KLK1 it was 3 to 10 µM; against Human Factor XIIa it was 100 to 300 nM.

As for `CN1C[C@H](COc2cc(CNc3cccc4c(N)nccc34)ccn2)OC1=O` [Example 4280, (5R)-5-{[(4-{[(1-aminoisoquinolin-5-yl)amino]methyl}pyridin-2-yl)oxy]methyl}-3-methyl-1,3-oxazolidin-2-one], the IC50 against Thrombin was above 40 µM; against FXa it was above 40 µM; at Plasma Kallikrein, above 40 µM; against KLK1, 10 to 40 µM; against Human Factor XIIa, 10000 to 40000 nM.

As to `Nc1nccc2c(NCc3ccc(N4CCn5c(nnc5C(F)(F)F)C4)nc3)cccc12` [Example 1275, N5-((6-(3-(trifluoromethyl)-5,6-dihydro-[1,2,4]triazolo[4,3-a]pyrazin-7(8H)-yl)pyridin-3-yl)methyl)isoquinoline-1,5-diamine], the IC50 at Thrombin was above 40 µM; against FXa, above 40 µM; on Plasma Kallikrein it was above 40 µM; against KLK1, 3 to 10 µM; against Human Factor XIIa, 300 to 1000 nM.

Consider `CC(C)N1C[C@H]2C[C@@H]1CN2CCc1ccc(CNc2ccc3c(N)ncc(Cl)c3c2)c(F)c1` [Example 2214, 4-chloro-6-N-[(2-fluoro-4-{2-[(1R,4R)-5-isopropyl-2,5-diazabicyclo[2.2.1]heptan-2-yl]ethyl}phenyl)methyl]isoquinoline-1,6-diamine], for which the IC50 on Thrombin is above 40 µM; on FXa, above 40 µM; at Plasma Kallikrein it was 10 to 40 µM; against KLK1 it was 3 to 10 µM; at Human Factor XIIa, 300 to 1000 nM.

For `CC(C)N1C[C@H]2C[C@@H]1CN2Cc1cc(CNc2cccc3c(N)nccc23)ccn1` [Example 4294, 5-N-[(2-{[(1R,4R)-5-isopropyl-2,5-diazabicyclo[2.2.1]heptan-2-yl]methyl}pyridin-4-yl)methyl]isoquinoline-1,5-diamine], the IC50 was above 40 µM against Thrombin; above 40 µM on FXa; above 40 µM at Plasma Kallikrein; 10 to 40 µM against KLK1; 10000 to 40000 nM against Human Factor XIIa.

As to `CN1CC2(CC(OCc3ccc(CNc4cccc5c(N)nccc45)c(F)c3)C2)C1` [Example 2206, 5-N-[[2-fluoro-4-[(2-methyl-2-azaspiro[3.3]heptan-6-yl)oxymethyl]phenyl]methyl]isoquinoline-1,5-diamine], the IC50 against Thrombin is above 40 µM; on FXa it was above 40 µM; on Plasma Kallikrein, 10 to 40 µM; on KLK1 it was 10 to 40 µM; at Human Factor XIIa, 3000 to 10000 nM.

Regarding `Nc1nccc2c(NCc3ccc(OCC4CCn5ccnc5C4)nc3)cccc12` (single isomer, unassigned) [Example 1030, (S*)-N5-((6-((5,6,7,8-tetrahydroimidazo[1,2-a]pyridin-7-yl)methoxy)pyridin-3-yl)methyl)isoquinoline-1,5-diamine], the IC50 at Thrombin fell in the range of 10 to 40 µM; against FXa, 10 to 40 µM; at Plasma Kallikrein it was 10 to 40 µM; at KLK1, 3 to 10 µM; at Human Factor XIIa it was 300 to 1000 nM.

In the case of `Cn1ccnc1CCCOc1ncc(CNc2cccc3c(N)nccc23)cn1` [Example 1035, N5-((2-(3-(1-methyl-1H-imidazol-2-yl)propoxy)pyrimidin-5-yl)methyl)isoquinoline-1,5-diamine], the IC50 against Thrombin is above 40 µM; at FXa, above 40 µM; at Plasma Kallikrein it was above 40 µM; against KLK1, 10 to 40 µM; at Human Factor XIIa, 3000 to 10000 nM.

`CN1CCN(CCc2ccc(CNc3cccc4c(N)nccc34)c(F)c2)CC1` [Example 2182, 5-N-({2-fluoro-4-[2-(4-methylpiperazin-1-yl)ethyl]phenyl}methyl)isoquinoline-1,5-diamine]: the IC50 is above 40 µM at Thrombin; above 40 µM at FXa; above 40 µM on Plasma Kallikrein; 10 to 40 µM at KLK1; 300 to 1000 nM on Human Factor XIIa.

Turning to `CN1CC2CCC(C1)C2COc1cc(CNc2cccc3c(N)nccc23)ccn1` (stereo not shown) [Example 4278, 5-N-[[2-[(3-methyl-3-azabicyclo[3.2.1]octan-8-yl)methoxy]-4-pyridyl]methyl]isoquinoline-1,5-diamine], the IC50 is above 40 µM at Thrombin; 1 to 3 µM against FXa; above 40 µM on Plasma Kallikrein; 3 to 10 µM at KLK1; 100 to 300 nM at Human Factor XIIa.

The IC50 is the concentration that inhibits the measured activity by half.
